Measured values published in ChEMBL document CHEMBL6074668 (J Med Chem, 2024).
Active and inactive are the calls of the source. No cut-off for these calls is given here.

Key:
[1] = target: Delta-type opioid receptor (Homo sapiens) (UniProt P41143); assay: Agonist activity at human delta opioid receptor expressed in CHO-K1 cells assessed as inhibition of forskolin-stimulated cAMP accumulation at <1 uM by HitHunter assay based luminescence analysis; assay type: functional, cell-based
[2] = target: T1, Kappa-type opioid receptor (Homo sapiens, UniProt P41145); assay: Agonist activity at kappa opioid receptor (unknown origin) expressed in human U2OS cells assessed as beta arrestin2 recruitment at <10 uM incubated for 30 mins by PathHunter assay; assay type: functional, cell-based; conditions: filed as agonist
T1 sequence (P41145 whole entry): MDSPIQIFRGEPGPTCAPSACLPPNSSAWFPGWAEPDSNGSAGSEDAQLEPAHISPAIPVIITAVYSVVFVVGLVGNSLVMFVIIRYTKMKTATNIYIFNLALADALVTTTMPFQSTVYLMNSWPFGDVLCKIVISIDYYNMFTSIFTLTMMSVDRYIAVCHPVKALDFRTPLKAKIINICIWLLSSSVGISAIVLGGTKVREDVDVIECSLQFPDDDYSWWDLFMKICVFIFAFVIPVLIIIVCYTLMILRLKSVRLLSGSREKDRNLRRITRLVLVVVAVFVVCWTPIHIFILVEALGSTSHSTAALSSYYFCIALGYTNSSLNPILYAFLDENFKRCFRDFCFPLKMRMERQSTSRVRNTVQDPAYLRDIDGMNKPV

Mu-type opioid receptor [3] = target: T2, Mu-type opioid receptor (Homo sapiens, UniProt P35372); assay: Agonist activity at human mu opioid receptor expressed in CHO-K1 cells assessed as inhibition of forskolin-stimulated cAMP accumulation by HitHunter assay based luminescence analysis relative to control; assay type: functional, cell-based
T2 sequence (P35372 whole entry): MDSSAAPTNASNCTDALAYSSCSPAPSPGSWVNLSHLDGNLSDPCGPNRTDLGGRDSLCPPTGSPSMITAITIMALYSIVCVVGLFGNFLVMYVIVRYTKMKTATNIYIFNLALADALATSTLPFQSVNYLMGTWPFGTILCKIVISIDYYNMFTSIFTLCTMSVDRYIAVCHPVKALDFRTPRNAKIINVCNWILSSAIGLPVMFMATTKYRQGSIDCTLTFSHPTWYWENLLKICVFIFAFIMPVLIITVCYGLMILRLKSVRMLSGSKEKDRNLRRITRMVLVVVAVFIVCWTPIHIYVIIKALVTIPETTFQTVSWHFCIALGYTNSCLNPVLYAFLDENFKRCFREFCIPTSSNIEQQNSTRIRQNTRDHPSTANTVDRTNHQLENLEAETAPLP

[4] = target: T1, Kappa-type opioid receptor; assay: Agonist activity at human kappa opioid receptor expressed in CHO-K1 cells assessed as inhibition of forskolin-stimulated cAMP accumulation by HitHunter assay based luminescence analysis relative to control; assay type: functional, cell-based; conditions: filed as agonist
[5] = target: T3, Alpha-2B adrenergic receptor (Homo sapiens, UniProt P18089); assay: Binding affinity to alpha2B adrenergic receptor (unknown origin) by radioligand displacement assay
T3 sequence (P18089 whole entry): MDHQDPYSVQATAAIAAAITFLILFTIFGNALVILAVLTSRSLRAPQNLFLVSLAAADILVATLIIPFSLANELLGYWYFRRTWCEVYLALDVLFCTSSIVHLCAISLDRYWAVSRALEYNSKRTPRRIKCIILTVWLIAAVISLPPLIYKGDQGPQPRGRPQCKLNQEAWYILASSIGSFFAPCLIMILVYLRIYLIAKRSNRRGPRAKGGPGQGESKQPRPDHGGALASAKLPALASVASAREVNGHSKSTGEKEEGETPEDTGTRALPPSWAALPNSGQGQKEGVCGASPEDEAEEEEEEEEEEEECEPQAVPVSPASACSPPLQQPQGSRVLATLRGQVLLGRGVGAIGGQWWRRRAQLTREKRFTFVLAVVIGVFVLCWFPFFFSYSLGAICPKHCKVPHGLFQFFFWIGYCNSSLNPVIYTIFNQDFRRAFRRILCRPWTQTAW

[6] = target: 5-hydroxytryptamine receptor 5A (Homo sapiens, UniProt P47898); assay: Binding affinity to 5HT5A receptor (unknown origin) by radioligand displacement assay
5-hydroxytryptamine receptor 5A, sequence (P47898 whole entry): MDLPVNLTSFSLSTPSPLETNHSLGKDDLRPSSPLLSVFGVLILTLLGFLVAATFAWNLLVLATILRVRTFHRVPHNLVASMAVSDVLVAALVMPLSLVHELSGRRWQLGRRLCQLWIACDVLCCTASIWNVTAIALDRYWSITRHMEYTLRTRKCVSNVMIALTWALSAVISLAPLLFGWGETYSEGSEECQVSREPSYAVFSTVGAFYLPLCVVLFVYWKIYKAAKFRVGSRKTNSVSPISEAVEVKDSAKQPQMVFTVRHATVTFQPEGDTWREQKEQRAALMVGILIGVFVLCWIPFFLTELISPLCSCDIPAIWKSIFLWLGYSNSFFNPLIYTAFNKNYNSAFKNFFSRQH

[7] = Binding affinity to Sigma2 opioid receptor (unknown origin) by radioligand displacement assay; design: species or system Homo sapiens
[8] = target: T4, Alpha-1A adrenergic receptor (Homo sapiens, UniProt P35348); assay: Binding affinity to alpha1A adrenergic receptor (unknown origin) by radioligand displacement assay
T4 sequence (P35348 whole entry): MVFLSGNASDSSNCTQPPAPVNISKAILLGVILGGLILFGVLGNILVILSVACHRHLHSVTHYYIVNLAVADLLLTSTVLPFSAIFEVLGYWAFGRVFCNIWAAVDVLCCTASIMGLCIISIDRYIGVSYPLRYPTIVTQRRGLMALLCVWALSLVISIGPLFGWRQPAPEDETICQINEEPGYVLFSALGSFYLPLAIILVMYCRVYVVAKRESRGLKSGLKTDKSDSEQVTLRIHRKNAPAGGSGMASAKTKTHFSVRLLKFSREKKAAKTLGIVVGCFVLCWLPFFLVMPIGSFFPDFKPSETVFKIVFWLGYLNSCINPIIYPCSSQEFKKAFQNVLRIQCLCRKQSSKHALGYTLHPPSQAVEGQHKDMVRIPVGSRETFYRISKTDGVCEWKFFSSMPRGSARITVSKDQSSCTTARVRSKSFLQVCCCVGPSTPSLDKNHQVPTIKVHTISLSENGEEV

[9] = target: T5, Alpha-1B adrenergic receptor (Homo sapiens, UniProt P35368); assay: Binding affinity to alpha1B adrenergic receptor (unknown origin) by radioligand displacement assay
T5 sequence (P35368 whole entry): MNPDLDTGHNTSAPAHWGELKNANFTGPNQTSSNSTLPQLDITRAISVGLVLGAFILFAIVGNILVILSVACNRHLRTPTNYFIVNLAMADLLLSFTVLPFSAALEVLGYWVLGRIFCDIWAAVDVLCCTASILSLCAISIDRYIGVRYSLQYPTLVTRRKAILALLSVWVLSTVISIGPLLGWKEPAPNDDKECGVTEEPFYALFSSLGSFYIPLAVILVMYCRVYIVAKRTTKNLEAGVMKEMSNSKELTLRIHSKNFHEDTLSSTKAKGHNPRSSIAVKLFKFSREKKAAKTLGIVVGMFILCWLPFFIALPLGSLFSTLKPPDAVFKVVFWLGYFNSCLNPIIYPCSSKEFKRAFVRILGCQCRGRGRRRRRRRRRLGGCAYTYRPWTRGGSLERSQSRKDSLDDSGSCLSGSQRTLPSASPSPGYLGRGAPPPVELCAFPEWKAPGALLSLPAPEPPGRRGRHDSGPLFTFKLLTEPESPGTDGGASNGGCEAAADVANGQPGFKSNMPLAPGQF

[10] = target: T6, Alpha-2C adrenergic receptor (Homo sapiens, UniProt P18825); assay: Binding affinity to alpha2C adrenergic receptor (unknown origin) by radioligand displacement assay
T6 sequence (P18825 whole entry): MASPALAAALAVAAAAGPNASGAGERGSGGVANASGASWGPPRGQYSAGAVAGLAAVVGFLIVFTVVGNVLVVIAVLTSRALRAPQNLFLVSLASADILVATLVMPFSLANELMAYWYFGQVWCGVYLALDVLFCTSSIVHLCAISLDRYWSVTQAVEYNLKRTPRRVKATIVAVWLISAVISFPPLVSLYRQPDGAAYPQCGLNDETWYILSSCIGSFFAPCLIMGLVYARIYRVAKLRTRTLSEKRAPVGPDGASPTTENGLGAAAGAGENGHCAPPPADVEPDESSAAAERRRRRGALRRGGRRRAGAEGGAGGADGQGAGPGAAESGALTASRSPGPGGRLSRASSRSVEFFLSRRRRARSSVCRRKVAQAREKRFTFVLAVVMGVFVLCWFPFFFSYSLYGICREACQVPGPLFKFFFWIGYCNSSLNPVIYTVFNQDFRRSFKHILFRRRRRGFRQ

[11] = target: T7, 5-hydroxytryptamine receptor 3A (Homo sapiens, UniProt P46098); assay: Binding affinity to 5HT3 receptor (unknown origin) by radioligand displacement assay
T7 sequence (P46098 whole entry): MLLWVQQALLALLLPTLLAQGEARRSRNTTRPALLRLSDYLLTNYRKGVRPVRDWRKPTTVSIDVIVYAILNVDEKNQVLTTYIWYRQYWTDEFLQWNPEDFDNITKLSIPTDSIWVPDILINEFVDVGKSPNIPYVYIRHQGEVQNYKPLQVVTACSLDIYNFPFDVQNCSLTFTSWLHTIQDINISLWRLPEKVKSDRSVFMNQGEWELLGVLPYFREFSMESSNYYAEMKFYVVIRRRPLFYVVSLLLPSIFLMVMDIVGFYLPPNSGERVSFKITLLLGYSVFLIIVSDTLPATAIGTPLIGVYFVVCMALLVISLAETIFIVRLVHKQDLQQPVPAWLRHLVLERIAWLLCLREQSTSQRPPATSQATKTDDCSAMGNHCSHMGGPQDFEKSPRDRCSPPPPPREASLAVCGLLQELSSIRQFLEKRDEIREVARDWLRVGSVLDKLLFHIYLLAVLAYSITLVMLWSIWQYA

[12] = target: T8, Alpha-2A adrenergic receptor (Homo sapiens, UniProt P08913); assay: Binding affinity to alpha2A adrenergic receptor (unknown origin) by radioligand displacement assay
T8 sequence (P08913 whole entry): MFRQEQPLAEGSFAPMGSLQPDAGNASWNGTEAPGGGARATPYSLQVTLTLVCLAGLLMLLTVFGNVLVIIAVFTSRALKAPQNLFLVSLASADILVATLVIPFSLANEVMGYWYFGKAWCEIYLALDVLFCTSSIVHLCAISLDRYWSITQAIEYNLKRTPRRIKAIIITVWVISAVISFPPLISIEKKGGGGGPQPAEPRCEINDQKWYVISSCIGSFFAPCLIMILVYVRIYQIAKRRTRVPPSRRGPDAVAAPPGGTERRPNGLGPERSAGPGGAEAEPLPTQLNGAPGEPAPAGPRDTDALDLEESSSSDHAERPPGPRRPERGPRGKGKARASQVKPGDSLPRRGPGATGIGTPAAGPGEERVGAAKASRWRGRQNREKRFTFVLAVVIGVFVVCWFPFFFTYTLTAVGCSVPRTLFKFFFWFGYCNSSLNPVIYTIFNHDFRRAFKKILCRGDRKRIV

[13] = target: T9, Voltage-gated inwardly rectifying potassium channel KCNH2 (Homo sapiens, UniProt Q12809); assay: Binding affinity to hERG by radioligand displacement assay; assay type: toxicity
T9 sequence (Q12809 whole entry): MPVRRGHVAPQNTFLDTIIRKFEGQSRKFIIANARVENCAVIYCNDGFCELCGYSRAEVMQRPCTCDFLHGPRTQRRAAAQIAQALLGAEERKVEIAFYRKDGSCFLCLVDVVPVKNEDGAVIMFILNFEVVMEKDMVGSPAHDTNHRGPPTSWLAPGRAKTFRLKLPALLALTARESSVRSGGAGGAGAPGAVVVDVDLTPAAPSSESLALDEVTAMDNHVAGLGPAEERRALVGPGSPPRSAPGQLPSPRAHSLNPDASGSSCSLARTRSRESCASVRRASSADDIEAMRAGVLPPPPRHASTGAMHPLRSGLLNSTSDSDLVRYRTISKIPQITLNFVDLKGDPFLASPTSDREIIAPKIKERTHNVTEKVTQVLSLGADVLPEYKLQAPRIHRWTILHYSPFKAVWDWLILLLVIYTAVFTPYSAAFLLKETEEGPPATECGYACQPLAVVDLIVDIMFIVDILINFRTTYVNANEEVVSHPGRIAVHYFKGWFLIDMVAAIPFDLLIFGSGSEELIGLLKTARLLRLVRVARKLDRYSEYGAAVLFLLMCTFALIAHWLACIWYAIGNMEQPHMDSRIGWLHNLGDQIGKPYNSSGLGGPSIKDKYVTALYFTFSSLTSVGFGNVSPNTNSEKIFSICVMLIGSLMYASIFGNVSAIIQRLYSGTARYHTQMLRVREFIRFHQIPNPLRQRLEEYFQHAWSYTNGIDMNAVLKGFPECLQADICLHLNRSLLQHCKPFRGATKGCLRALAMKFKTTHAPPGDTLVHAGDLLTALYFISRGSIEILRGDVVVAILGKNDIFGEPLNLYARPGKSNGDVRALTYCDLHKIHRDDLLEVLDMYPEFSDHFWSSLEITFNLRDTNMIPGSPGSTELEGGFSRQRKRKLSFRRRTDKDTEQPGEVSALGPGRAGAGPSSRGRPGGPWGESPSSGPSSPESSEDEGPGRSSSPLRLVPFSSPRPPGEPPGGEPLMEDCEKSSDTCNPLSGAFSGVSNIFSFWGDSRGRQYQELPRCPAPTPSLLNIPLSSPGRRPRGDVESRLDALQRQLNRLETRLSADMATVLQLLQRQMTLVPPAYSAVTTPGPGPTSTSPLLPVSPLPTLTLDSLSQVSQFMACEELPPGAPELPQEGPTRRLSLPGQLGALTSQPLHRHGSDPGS

[14] = Binding affinity to alpha7 […] receptor (unknown origin) by radioligand displacement assay; design: species or system Homo sapiens
[15] = target: 5-hydroxytryptamine receptor 7 (Homo sapiens, UniProt P34969); assay: Binding affinity to 5HT7A receptor (unknown origin) by radioligand displacement assay
5-hydroxytryptamine receptor 7, sequence (P34969 whole entry): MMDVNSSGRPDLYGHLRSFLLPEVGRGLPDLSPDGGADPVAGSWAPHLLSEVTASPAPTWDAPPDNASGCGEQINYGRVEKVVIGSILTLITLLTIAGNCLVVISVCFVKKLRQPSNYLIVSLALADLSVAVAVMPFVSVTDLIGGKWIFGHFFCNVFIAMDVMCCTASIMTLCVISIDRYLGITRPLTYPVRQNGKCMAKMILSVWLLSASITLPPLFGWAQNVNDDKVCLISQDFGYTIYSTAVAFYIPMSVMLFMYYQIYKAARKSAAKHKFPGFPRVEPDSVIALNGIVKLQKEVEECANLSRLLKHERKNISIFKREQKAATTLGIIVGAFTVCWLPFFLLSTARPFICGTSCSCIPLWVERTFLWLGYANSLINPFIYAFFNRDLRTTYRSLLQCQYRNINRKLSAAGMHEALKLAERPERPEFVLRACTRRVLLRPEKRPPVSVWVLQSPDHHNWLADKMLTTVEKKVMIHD

[16] = target: T1, Kappa-type opioid receptor; assay: Agonist activity at human kappa opioid receptor expressed in CHO-K1 cells assessed as inhibition of forskolin-stimulated cAMP accumulation by HitHunter assay based luminescence analysis; assay type: functional, cell-based
Mu-type opioid receptor [17] = target: T2, Mu-type opioid receptor
Description: Binding affinity to mu opioid receptor (unknown origin) by radioligand displacement assay

[18] = target: T1, Kappa-type opioid receptor; assay: Agonist activity at kappa opioid receptor (unknown origin) assessed as beta arrestin2 recruitment at 3 uM by PRESTO-Tango assay; assay type: functional; conditions: filed as agonist
[19] = target: T9, Voltage-gated inwardly rectifying potassium channel KCNH2; assay: Binding affinity to hERG at 10 uM by radioligand displacement assay; assay type: toxicity
[20] = target: T1, Kappa-type opioid receptor; assay: Binding affinity to kappa opioid receptor (unknown origin) by radioligand displacement assay
Homo sapiens = species: Homo sapiens; assay: Selectivity index, ratio of EC50 for agonist activity at human mu opioid receptor expressed in CHO-K1 cells to EC50 for agonist activity at human kappa opioid receptor expressed in CHO-K1 cells; assay type: cell-based
Mu-type opioid receptor [21] = target: T2, Mu-type opioid receptor; assay: Agonist activity at human mu opioid receptor expressed in CHO-K1 cells assessed as inhibition of forskolin-stimulated cAMP accumulation by HitHunter assay based luminescence analysis; assay type: functional, cell-based

Delta-type opioid receptor (Homo sapiens), sequence (P41143 whole entry): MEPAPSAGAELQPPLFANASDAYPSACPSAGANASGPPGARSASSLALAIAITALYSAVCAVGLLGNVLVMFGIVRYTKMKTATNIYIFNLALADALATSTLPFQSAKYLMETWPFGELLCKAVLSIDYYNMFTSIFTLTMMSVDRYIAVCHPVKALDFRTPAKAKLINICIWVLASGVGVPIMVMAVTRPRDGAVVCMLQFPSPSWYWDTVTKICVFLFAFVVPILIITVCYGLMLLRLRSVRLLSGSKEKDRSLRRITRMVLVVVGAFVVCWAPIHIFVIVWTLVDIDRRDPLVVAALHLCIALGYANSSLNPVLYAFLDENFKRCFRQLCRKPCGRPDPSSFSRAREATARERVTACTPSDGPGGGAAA

Structure (SMILES) | Activity [1] | Emax [4] [%] | Ki [5] [nM] | Ki [6] [nM] | Ki [10] [nM] | Ki [11] [nM] | Ki [15] [nM] | EC50 [16] [nM] | further results
C/C=C1/CN2CC[C@]34C(=C(C(=O)OC)[C@H]1C[C@H]23)Nc1ccc(-c2ccoc2)cc14 | inactive | 102 | – | – | – | – | – | – | Activity [2]: Active; Less Efficacious Than U50488; Emax (Mu-type opioid receptor [3]; filed as agonist): 99%
C/C=C1/CN2CC[C@]34C(=C(C(=O)OC)[C@H]1C[C@H]23)Nc1ccc(Br)cc14 | – | – | 1250 | 721 | 2910 | 210 | 1520 | – | Ki [7]: 2620 nM; Ki [8]: 1000 nM; Ki [9]: 2880 nM; Ki [12]: > 10000 nM; Ki [13]: 1340 nM; Ki [14]: 7000 nM
C/C=C1/CN2CC[C@]34C(=C(C(=O)OC)[C@H]1C[C@H]23)Nc1ccccc14 [AKUAMMICINE] | – | 91 | 1210 | 2930 | 4790 | 5490 | 1410 | 1200 | Ki (Mu-type opioid receptor [17]): 3730 nM; Activity [18]: Active; Activity [19]: < 50%; Ki [20]: 166 nM
C/C=C1/CN2CC[C@]34C(=C(C(=O)OC)[C@H]1C[C@H]23)Nc1ccc([N+](=O)[O-])cc14 | inactive | 96 | – | – | – | – | – | 160 | Ratio EC50 (Homo sapiens): 25; EC50 (Mu-type opioid receptor [21]): 4000 nM; Emax (Mu-type opioid receptor [3]): < 10%
